Patent US20230263822A1, “MODULATION OF FACTOR 11 EXPRESSION” (Ionis Pharmaceuticals, Inc., priority 2008, published 2023)
Where two headings read alike, the source gives them in different places.

Experiments:
[1] = rat, in vivo, sc, 50 mg/kg
[2] = mouse, in vivo, sc, 50 mg/kg
[3] = mouse, in vivo, sc, 50 mg/kg; remark: listed apart in the source
[4] = rat, in vivo, sc, 50 mg/kg; remark: listed apart in the source
[5] = mouse, in vivo, sc, 50 mg/kg; remark: listed apart in the source
[6] = rat, in vivo, sc, 50 mg/kg; remark: listed apart in the source

Substance	HCT [1] [%]	Lymphocyte [1]	Neutrophil [1]	Platelets [1]	RBC [1]	WBC [1]	hemoglobin [1] [g/dL]	BUN [2] [mg/dL]	HCT [3] [%]	Lymphocyte [3] [cells/μL]	Neutrophil [3] [cells/μL]	Platelets [3]	RBC [3]	WBC [3]	hemoglobin [3] [g/dL]	monocytes [3] [cells/μL]	ALT [4] [IU/L]	AST [4] [IU/L]	Albumin [4]	Bilirubin [4] [mg/dL]	other results
ISIS 416856: MOE gapmer, nucleobases 1275 to 1318 of SEQ ID NO: 1 (Table 8) (antisense GGCATTGGTGCACAGTTTCT; MOE gapmer, wing and gap sizes not given here)	43	14328	3280	740	7.7 10^6/μL	19 10^3/μL	14.1	21	47	3622	1292	753 10^3/μL	9 10^6/μL	5 10^3/μL	14	151	123	222	4	0.13	ALT [5]: 130 IU/L; AST [5]: 129 IU/L; Bilirubin [5]: 0.23 mg/dL; Cholesterol [5]: 109 mg/dL; BUN [6]: 23 mg/dL; Creatinine [6]: 48 mg/dL; Total urine protein [6]: 128 mg/dL; Urine protein/creatinine ratio [6]: 2.7
ISIS 416859: MOE gapmer, nucleobases 1275 to 1318 of SEQ ID NO: 1 (Table 8) (antisense GACGGCATTGGTGCACAGTT; MOE gapmer, wing and gap sizes not given here)	45	14323	1414	853	7.8 10^6/μL	16 10^3/μL	14.0	18	49	4363	1561	826 10^3/μL	10 10^6/μL	6 10^3/μL	15	229	114	206	5	0.21	ALT [5]: 214 IU/L; AST [5]: 293 IU/L; Bilirubin [5]: 0.20 mg/dL; Cholesterol [5]: 160 mg/dL; BUN [6]: 24 mg/dL; Creatinine [6]: 44 mg/dL; Total urine protein [6]: 144 mg/dL; Urine protein/creatinine ratio [6]: 3.3
ISIS 416860: MOE gapmer, nucleobases 1275 to 1318 of SEQ ID NO: 1 (Table 8) (antisense CGGACGGCATTGGTGCACAG; MOE gapmer, wing and gap sizes not given here)	45	13986	1841	669	7.8 10^6/μL	17 10^3/μL	14.1	25	51	4889	1291	937 10^3/μL	10 10^6/μL	7 10^3/μL	15	161	70	157	4	0.15	ALT [5]: 189 IU/L; AST [5]: 160 IU/L; Bilirubin [5]: 0.23 mg/dL; Cholesterol [5]: 152 mg/dL; BUN [6]: 23 mg/dL; Creatinine [6]: 58 mg/dL; Total urine protein [6]: 242 mg/dL; Urine protein/creatinine ratio [6]: 4.6
ISIS 416861: MOE gapmer, nucleobases 1275 to 1318 of SEQ ID NO: 1 (Table 8) (antisense GCGGACGGCATTGGTGCACA; MOE gapmer, wing and gap sizes not given here)	45	12865	1813	1008	7.7 10^6/μL	15 10^3/μL	14.6	23	48	5119	1122	836 10^3/μL	9 10^6/μL	7 10^3/μL	14	219	89	154	5	0.15	ALT [5]: 38 IU/L; AST [5]: 85 IU/L; Bilirubin [5]: 0.27 mg/dL; Cholesterol [5]: 133 mg/dL; BUN [6]: 22 mg/dL; Creatinine [6]: 39 mg/dL; Total urine protein [6]: 205 mg/dL; Urine protein/creatinine ratio [6]: 5.1
ISIS 416863: MOE gapmer, nucleobases 1275 to 1318 of SEQ ID NO: 1 (Table 8) (antisense CAGCGGACGGCATTGGTGCA; MOE gapmer, wing and gap sizes not given here)	45	14669	1720	674	7.6 10^6/μL	17 10^3/μL	14.1	22	48	5617	1330	1131 10^3/μL	9 10^6/μL	7 10^3/μL	14	226	47	78	4	0.13	ALT [5]: 41 IU/L; AST [5]: 101 IU/L; Bilirubin [5]: 0.24 mg/dL; Cholesterol [5]: 118 mg/dL; BUN [6]: 29 mg/dL; Creatinine [6]: 73 mg/dL; Total urine protein [6]: 269 mg/dL; Urine protein/creatinine ratio [6]: 3.8
ISIS 416866: MOE gapmer, nucleobases 1275 to 1318 of SEQ ID NO: 1 (Table 8) (antisense CTGGCAGCGGACGGCATTGG; MOE gapmer, wing and gap sizes not given here)	44	16834	1916	900	7.8 10^6/μL	20 10^3/μL	14.0	22	51	4621	1201	1045 10^3/μL	9 10^6/μL	6 10^3/μL	15	211	41	78	4	0.16	ALT [5]: 36 IU/L; AST [5]: 120 IU/L; Bilirubin [5]: 0.29 mg/dL; Cholesterol [5]: 113 mg/dL; BUN [6]: 22 mg/dL; Creatinine [6]: 85 mg/dL; Total urine protein [6]: 486 mg/dL; Urine protein/creatinine ratio [6]: 6.2
